The source of these data is ChEMBL document CHEMBL3526033, “Identification of human liver cytochrome P450 enzymes involved in the metabolism of SCH 530348 (Vorapaxar), a potent oral thrombin protease-activated receptor 1 antagonist” (Drug Metab Dispos, 2011).

The target of data set [1] is Cytochrome P450 2D6 (Homo sapiens, UniProt P10635). The data set is described as follows: Activity of human recombinant CYP2D6 assessed as enzyme-mediated drug metabolism treated with 25 uM vorapaxar after 120 mins by LC-MS/MS analysis in presence of NADPH. It is filed as ADME. The settings on record: 2 h.
Data set [2] has as its target Cytochrome P450 2C9 (Homo sapiens, UniProt P11712). The data set is described as follows: Activity of human recombinant CYP2C9 assessed as enzyme-mediated drug metabolism treated with 25 uM vorapaxar after 120 mins by LC-MS/MS analysis in presence of NADPH. It is filed as ADME. The settings on record: 2 h.
The target in data set [3] is Cytochrome P450 2E1 (Homo sapiens, UniProt P05181). As to the kind of experiment: Activity of human recombinant CYP2E1 assessed as enzyme-mediated drug metabolism treated with 25 uM vorapaxar after 120 mins by LC-MS/MS analysis in presence of NADPH. It is filed as ADME. The conditions noted are these: 2 h.
Data set [4] has as its target Cytochrome P450 4F12 (Homo sapiens, UniProt Q9HCS2). The data set is described as follows: Activity of human recombinant CYP4F12 assessed as enzyme-mediated drug metabolism treated with 25 uM vorapaxar after 120 mins by LC-MS/MS analysis in presence of NADPH. The format is ADME. The conditions noted are these: 2 h.
The target in data set [5] is T1, Cytochrome P450 2B6 (Homo sapiens, UniProt P20813).
T1 sequence (P20813 whole entry): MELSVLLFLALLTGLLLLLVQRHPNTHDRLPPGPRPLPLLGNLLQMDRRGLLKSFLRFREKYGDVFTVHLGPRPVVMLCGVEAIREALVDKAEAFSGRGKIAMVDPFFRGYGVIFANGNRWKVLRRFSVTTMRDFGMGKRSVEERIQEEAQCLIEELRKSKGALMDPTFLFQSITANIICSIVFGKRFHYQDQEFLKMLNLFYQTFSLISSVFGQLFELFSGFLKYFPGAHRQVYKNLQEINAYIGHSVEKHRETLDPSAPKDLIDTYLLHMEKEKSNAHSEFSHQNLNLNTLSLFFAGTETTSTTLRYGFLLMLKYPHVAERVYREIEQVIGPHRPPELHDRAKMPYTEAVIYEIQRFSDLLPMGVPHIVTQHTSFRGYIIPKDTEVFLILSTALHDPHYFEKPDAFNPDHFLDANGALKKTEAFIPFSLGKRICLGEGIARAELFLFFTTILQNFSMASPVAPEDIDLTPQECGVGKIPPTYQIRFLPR
The data set is described as follows: Activity of human recombinant CYP2B6 assessed as enzyme-mediated drug metabolism treated with 25 uM vorapaxar after 120 mins by LC-MS/MS analysis in presence of NADPH. The settings on record: 2 h. The format is ADME.

The nature of data set [6]: Drug level in human lung microsomes treated with 25 uM vorapaxar after 120 mins by LC-MS/MS analysis in presence of NADPH. The settings on record: 2 h. The format is ADME, microsome.
For data set [7], the target named is Cytochrome P450 3A4 (Homo sapiens, UniProt P08684). The data set is described as follows: Drug metabolism in human liver microsomes assessed as CYP3A4-mediated (3R,3aS,4S,4aR,7R,8aR,9aR)-7-amino-4-((E)-2-(5-(3-fluorophenyl)pyridin-2-yl)vinyl)-3-methyldecahydronaphtho[2,3-c]furan-1(3H)-one formation at 25 uM after 120 mins by LC-MS/MS analysis. The format is ADME. The settings on record: 2 h.

In data set [8] the test system is Liver microsome. As to the kind of experiment: Intrinsic clearance in human liver microsomes assessed as (3R,3aS,4S,4aR,7R,8aR,9aR)-7-amino-4-((E)-2-(5-(3-fluorophenyl)pyridin-2-yl)vinyl)-3-methyldecahydronaphtho[2,3-c]furan-1(3H)-one formation by measuring Vmax/Km per nmol of enzyme after 120 mins by LC-MS/MS analysis. The format is ADME. The settings on record: 2 h. For orientation: Microsomes from liver hold many membrane-bound enzymes, among them those of drug oxidation.

Data set [9] has as its target T2, Cytochrome P450 4F3 (Homo sapiens, UniProt Q08477).
T2 sequence (Q08477 whole entry): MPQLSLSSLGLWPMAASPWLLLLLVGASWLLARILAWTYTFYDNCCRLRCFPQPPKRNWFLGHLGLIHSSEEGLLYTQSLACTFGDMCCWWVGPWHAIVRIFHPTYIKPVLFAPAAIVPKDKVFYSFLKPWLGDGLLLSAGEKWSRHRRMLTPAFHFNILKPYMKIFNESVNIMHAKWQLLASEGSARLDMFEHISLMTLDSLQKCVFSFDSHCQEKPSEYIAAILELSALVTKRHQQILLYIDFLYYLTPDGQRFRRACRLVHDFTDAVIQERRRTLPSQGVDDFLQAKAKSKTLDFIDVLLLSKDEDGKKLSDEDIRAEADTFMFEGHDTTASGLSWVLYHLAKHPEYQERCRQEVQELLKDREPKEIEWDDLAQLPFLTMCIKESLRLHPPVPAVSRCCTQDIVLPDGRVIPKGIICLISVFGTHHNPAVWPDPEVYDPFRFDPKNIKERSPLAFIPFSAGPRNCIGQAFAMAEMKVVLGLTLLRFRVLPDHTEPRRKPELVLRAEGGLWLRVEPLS
The data set is described as follows: Activity of human recombinant CYP4F3A assessed as enzyme-mediated (3R,3aS,4S,4aR,7R,8aR,9aR)-7-amino-4-((E)-2-(5-(3-fluorophenyl)pyridin-2-yl)vinyl)-3-methyldecahydronaphtho[2,3-c]furan-1(3H)-one formation at 25 uM after 120 mins by LC-MS/MS analysis in presence of NADPH. The format is ADME. The conditions noted are these: 2 h.

Data set [10] deals with CYP2D6 (Homo sapiens, UniProt P10635). The data set is described as follows: Activity of human recombinant CYP2D6 assessed as enzyme-mediated drug metabolism at 10 uM after 120 mins by LC-MS/MS analysis in presence of NADPH. The format is ADME. The settings on record: read-out: Compound recovery.
Data set [11] has as its target CYP2C19 (Homo sapiens, UniProt P33261). As to the kind of experiment: Activity of human recombinant CYP2C19 assessed as enzyme-mediated drug metabolism at 10 uM after 120 mins by LC-MS/MS analysis in presence of NADPH. It is filed as ADME. The settings on record: read-out: Compound recovery.
In data set [12] the target is CYP3A5 (Homo sapiens, UniProt P20815). The data set is described as follows: Activity of human recombinant CYP3A5 assessed as enzyme-mediated drug metabolism at 10 uM after 120 mins by LC-MS/MS analysis in presence of NADPH. The conditions noted are these: read-out: Compound recovery. It is filed as ADME.
For data set [13], the system named is Liver microsome. The data set is described as follows: Drug metabolism in human liver microsomes assessed as (3R,3aS,4S,4aR,7R,8aR,9aR)-7-amino-4-((E)-2-(5-(3-fluorophenyl)pyridin-2-yl)vinyl)-3-methyldecahydronaphtho[2,3-c]furan-1(3H)-one formation at 10 to 25 uM after 120 mins by LC-MS/MS analysis in presence of orphenadrine. It is filed as ADME. The conditions noted are these: 2 h.

Data set [14] relates to Liver microsome. The data set is described as follows: Drug metabolism in human liver microsomes overexpressing CYP3A4 assessed as (3R,3aS,4S,4aR,7R,8aR,9aR)-7-amino-4-((E)-2-(5-(3-fluorophenyl)pyridin-2-yl)vinyl)-3-methyldecahydronaphtho[2,3-c]furan-1(3H)-one formation at 25 uM after 120 mins by LC-MS/MS analysis in presence of ticlopidine. The format is ADME. The settings on record: 2 h.

Data set [15] concerns Liver microsome. As to the kind of experiment: Drug metabolism in human liver microsomes overexpressing CYP3A4 assessed as (3R,3aS,4S,4aR,7R,8aR,9aR)-7-amino-4-((E)-2-(5-(3-fluorophenyl)pyridin-2-yl)vinyl)-3-methyldecahydronaphtho[2,3-c]furan-1(3H)-one formation at 25 uM after 120 mins by LC-MS/MS analysis in presence of ketoconazole. It is filed as ADME. The settings on record: 2 h.

Chain of Cytochrome P450 4F12 (Q9HCS2 whole entry): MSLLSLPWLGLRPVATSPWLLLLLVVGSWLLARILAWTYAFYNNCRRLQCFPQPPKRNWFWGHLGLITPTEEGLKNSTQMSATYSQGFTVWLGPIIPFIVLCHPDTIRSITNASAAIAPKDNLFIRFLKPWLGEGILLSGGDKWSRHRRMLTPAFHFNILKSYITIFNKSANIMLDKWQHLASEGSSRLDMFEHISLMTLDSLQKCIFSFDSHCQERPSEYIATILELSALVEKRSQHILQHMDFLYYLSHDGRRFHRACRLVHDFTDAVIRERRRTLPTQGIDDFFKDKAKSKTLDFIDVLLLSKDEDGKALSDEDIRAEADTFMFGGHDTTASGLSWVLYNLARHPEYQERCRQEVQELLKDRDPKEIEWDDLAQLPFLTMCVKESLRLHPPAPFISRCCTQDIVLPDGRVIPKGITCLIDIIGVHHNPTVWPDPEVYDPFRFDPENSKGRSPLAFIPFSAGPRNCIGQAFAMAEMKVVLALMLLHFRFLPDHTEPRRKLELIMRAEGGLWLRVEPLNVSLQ
Chain of Cytochrome P450 2E1 (P05181 whole entry): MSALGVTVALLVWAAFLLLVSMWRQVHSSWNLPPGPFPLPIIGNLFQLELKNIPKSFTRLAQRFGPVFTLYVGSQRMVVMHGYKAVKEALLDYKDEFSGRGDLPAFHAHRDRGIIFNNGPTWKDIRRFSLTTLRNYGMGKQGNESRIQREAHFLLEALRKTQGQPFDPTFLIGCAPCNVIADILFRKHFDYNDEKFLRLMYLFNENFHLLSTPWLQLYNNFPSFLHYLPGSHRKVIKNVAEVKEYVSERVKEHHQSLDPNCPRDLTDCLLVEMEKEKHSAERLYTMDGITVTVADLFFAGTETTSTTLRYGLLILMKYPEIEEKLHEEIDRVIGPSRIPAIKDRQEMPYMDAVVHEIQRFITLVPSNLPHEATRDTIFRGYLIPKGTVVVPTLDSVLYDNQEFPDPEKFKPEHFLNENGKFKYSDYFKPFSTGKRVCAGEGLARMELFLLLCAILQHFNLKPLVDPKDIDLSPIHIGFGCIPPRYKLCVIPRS
Chain of CYP3A5 (P20815 whole entry): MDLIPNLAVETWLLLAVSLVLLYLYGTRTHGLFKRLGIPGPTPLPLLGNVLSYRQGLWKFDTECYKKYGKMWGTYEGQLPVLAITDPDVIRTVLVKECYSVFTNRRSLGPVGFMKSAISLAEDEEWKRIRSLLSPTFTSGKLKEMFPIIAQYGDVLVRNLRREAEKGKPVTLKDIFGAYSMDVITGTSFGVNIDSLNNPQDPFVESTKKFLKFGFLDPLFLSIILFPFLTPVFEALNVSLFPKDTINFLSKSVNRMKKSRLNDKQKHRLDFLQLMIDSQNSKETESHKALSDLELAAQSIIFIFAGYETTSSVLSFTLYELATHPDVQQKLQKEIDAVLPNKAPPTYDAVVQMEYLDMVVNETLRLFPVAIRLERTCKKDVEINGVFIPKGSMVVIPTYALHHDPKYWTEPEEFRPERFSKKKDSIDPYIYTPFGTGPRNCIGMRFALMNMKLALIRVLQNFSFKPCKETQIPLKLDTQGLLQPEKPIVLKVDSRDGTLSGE
Chain of Cytochrome P450 3A4 (P08684 whole entry): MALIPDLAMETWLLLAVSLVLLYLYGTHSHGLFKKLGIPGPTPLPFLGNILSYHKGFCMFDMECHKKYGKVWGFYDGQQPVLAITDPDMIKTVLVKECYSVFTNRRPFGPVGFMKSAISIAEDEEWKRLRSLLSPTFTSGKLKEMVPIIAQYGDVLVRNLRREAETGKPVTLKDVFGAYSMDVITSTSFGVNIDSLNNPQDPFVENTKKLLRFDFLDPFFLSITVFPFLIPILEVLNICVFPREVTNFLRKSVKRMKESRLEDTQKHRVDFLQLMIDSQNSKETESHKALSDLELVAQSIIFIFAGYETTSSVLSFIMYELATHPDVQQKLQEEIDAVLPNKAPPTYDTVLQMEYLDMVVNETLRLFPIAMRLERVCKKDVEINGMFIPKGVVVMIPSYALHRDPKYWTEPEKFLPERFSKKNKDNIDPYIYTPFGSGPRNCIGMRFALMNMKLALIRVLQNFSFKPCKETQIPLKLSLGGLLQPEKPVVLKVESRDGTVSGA
Chain of Cytochrome P450 2C9 (P11712 whole entry): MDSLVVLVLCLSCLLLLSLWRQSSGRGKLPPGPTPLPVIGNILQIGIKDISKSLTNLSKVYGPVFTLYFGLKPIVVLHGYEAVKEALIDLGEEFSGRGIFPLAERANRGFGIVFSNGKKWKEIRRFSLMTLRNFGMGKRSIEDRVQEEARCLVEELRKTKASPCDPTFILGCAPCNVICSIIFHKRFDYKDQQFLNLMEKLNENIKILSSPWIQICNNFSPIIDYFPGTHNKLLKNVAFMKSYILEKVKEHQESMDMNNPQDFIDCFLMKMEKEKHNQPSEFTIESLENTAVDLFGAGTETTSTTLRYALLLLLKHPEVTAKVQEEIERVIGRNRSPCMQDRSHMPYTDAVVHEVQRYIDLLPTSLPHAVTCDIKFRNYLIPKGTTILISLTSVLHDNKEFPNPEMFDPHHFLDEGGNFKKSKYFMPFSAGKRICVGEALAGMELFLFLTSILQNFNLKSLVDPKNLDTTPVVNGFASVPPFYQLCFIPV
Chain of CYP2C19 (P33261 whole entry): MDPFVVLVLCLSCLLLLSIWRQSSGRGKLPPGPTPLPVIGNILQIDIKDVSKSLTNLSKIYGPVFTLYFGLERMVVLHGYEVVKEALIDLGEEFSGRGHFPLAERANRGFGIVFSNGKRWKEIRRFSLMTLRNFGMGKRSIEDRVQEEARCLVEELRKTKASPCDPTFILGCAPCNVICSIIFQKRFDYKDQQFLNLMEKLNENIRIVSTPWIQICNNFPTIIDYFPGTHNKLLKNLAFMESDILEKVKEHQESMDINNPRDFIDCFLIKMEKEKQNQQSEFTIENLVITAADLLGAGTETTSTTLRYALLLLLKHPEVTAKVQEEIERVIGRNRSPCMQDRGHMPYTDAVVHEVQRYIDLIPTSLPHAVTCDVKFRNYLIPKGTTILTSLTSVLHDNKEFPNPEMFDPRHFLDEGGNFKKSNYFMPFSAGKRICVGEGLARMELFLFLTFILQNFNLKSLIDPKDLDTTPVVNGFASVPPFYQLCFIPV
Chain of Cytochrome P450 2D6 (P10635 whole entry): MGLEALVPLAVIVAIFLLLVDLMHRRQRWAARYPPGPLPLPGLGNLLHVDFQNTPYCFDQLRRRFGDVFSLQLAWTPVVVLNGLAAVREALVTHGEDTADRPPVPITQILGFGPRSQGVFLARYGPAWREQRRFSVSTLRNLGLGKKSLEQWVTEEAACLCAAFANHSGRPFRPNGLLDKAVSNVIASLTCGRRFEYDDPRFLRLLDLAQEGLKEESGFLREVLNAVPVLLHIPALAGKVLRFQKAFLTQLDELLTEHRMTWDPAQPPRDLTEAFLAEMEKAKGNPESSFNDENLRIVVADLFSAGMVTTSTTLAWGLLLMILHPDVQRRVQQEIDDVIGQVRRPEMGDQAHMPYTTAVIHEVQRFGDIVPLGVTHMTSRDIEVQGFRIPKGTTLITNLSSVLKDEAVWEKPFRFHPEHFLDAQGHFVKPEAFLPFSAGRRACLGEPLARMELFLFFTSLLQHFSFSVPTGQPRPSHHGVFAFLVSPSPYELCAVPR
Chain of CYP2D6 (P10635 whole entry): as above

For the compound `C[C@H]1OC(=O)[C@@H]2C[C@@H]3C[C@H](NC(=O)OCCO)CC[C@H]3[C@H](/C=C/c3ccc(-c4cccc(F)c4)cn3)[C@H]12`, the Drug metabolism entry in [1], in data set [2], in data set [3], in [4], in data set [5] and in [6] was “metabolite_detected” in each case. Also, in data set [7], the Drug metabolism result is “metabolite_detected”.
Turning to `CCOC(=O)N[C@@H]1CC[C@@H]2[C@@H](C1)C[C@H]1C(=O)O[C@H](C)[C@H]1[C@H]2/C=[14CH]/c1ccc(-c2cccc(F)c2)cn1`, the CLH in data set [8] was found to be 2.46 µL/min. Moreover, the Drug metabolism entry in [9] is recorded as “metabolite_detected”.
As to `CCOC(=O)N[C@@H]1CC[C@@H]2[C@@H](C1)C[C@H]1C(=O)O[C@H](C)[C@H]1[C@H]2/C=C/c1ccc(-c2cccc(F)c2)cn1` [VORAPAXAR], the remaining at 2 h, 10 µM in data set [10] worked out at 98.1%; in [11], 94.1%; in data set [12], 93.9%. Further, the Drug metabolism result in [13], in data set [14] and in data set [15] was “metabolite_not_detected” in each case.
